Source: patent US20240209053A1 (Protagonist Therapeutics, Inc., priority 2021, published 2024)
Numbered stars: 1 amine (or outer) side, 2 acyl side, 3 side chain; on linkers, the order of the positions; unused ones are H or OH. Bridge positions count the residues as written; N and C are the ends. Square brackets hold non-standard residues; d marks the D form. Side chains are listed from the residue outwards. Peptide text beside a SMILES is read from it. * marks the point of attachment. Dip = N[C@H](C(=O)O)C(c1ccccc1)c1ccccc1; Hag = O=C([C@H](CCC=[*:3])N[*:1])[*:2]; Palmitoyl = CCCCCCCCCCCCCCCC(=O)*; tBuAla = CC(C)(C)C[C@H](N)C(=O)O; β3hF = N[C@H](CC(=O)O)Cc1ccccc1; Isovaleryl = CC(C)CC(=O)*; Ahx = NCCCCCC(=O)O

What was measured:
[1] = molecular target: T1, human ferroportin (SLC40A1) (Homo sapiens, UniProt Q9NP59); experiment: FPN activity assay: internalization/degradation of ferroportin-GFP in stably transfected HEK293 cells (decrease in GFP fluorescence); assay type: cell-based; conditions: compound incubated at least 18 hours
T1 sequence (Q9NP59 1-571): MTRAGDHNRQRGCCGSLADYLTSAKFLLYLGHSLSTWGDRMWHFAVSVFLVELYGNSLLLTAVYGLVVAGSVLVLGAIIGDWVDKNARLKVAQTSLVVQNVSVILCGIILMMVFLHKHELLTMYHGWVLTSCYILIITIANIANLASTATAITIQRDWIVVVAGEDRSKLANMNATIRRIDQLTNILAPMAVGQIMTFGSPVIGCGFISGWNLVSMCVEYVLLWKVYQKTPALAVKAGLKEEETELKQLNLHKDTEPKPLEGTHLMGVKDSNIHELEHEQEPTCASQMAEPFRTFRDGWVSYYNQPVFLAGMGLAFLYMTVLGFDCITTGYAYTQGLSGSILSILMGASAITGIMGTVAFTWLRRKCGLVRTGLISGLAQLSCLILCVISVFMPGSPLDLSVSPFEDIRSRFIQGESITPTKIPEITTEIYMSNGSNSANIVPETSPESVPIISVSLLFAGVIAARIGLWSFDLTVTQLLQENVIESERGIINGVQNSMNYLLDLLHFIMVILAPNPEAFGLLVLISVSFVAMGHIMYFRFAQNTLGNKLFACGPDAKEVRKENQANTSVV
Summary of the method: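 HEK293 cells stably expressing human ferroportin C-terminally fused to GFP were exposed to peptides for at least 18 h, at most 24 h. Internalization/degradation read as loss of GFP fluorescence; EC50 derived. Retro-inverse mini-hepcidin peptides used as control standards.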

ferroportin = molecular target: T2, ferroportin (Homo sapiens, UniProt Q9NP59); experiment: T47D cell-based ferroportin internalization assay in presence of 0.5% mouse serum albumin (MSA); conditions: T47D cells
T2 sequence (Q9NP59 1-571): T1 sequence (Q9NP59 1-571)
Protocol: The potency of the peptides in causing ferroportin internalization was evaluated in a T47D cell-based assay. […] In this internalization assay, the potency of the test peptides was evaluated in presence of serum albumin which is the main protein component in the blood. T47D cells were maintained in RPMI media (containing required amount of fetal bovine serum) and regularly sub-cultured. In preparation for the assay, the cells were seeded in 96-well plates at a density of 80-100 k cells per well in 100 ul volume and allowed to rest overnight. On the next day, test peptides were first prepared in dilution series (10-point series, starting concentration of ˜5 μM, typically 3-4×fold dilution steps), all with 0.5% mouse serum albumin (MSA purified from mouse serum; Sigma, A3139). The test peptide dilution series were allowed to incubate at room temperature for 30 min. Then the media was aspirated from the 96-well cell plate and test peptide dilution series were added. After 1 hr incubation, the media with test peptides was aspirated out and AF647-conjugated detection peptide was added at fixed concentration of 200 nM. The AF647-conjugated detection peptide was previously verified to bind to ferroportin and cause its internalization. The cells were washed again after a 2 hr incubation in preparation for flow cytometry analysis. The Median Fluorescence Intensity (MFI) of the AF647-positive population was measured (after removing dead cells and non-singlets from the analysis). The MFI values were used to generate a dose-response curve and obtain IC50 potencies for the test peptides. The IC50 potencies were calculated by using 4-parameter non-linear fitting function in Graphpad Prism (Table 6A).

Structure (SMILES) | IC50 [1] [nM] | IC50 (ferroportin) [nM]
CCCCCCCCCCCCCCCC(=O)NCCCCCC(=O)NCCCC[C@H](NC(=O)C[C@H](Cc1ccccc1)NC(=O)[C@@H](CCCCN)NC(=O)[C@@H]1CCC=CCC[C@H](NC(=O)[C@@H]2CCCN2C(=O)[C@@H](NC(=O)[C@H](Cc2c[nH]cn2)NC(=O)[C@@H](NC(=O)[C@H](CCC(=O)O)NC(=O)CC(C)C)[C@@H](C)O)C(c2ccccc2)c2ccccc2)C(=O)N1)C(=O)N[C@H](CCCCN)C(N)=O [Compd 15] | 10 to 100 | 1 to 10
CC[C@H](C)[C@@H]1NC(=O)[C@H](C)NC(=O)[C@@H]2CCCN2C(=O)[C@H](C(c2ccccc2)c2ccccc2)NC(=O)[C@H](Cc2c[nH]cn2)NC(=O)[C@H]([C@@H](C)O)NC(=O)[C@@H](NC(=O)CC(C)C)CCC=CCC[C@@H](C(=O)N[C@H](CC(=O)N[C@@H](C)C(=O)N[C@H](CCCCN)C(N)=O)Cc2ccccc2)NC1=O [Compd 47] (Isovaleryl-[Hag]TH[Dip]PAI[Hag][β3hF]A[dK]-NH2; staple 1-8) | 10 to 100 | 10 to 100
CCCCCCCCCCCCCCCC(=O)NCCCCCC(=O)NCCCC[C@H](NC(=O)C[C@H](Cc1ccccc1)NC(=O)[C@@H]1CCC=CCC[C@H](NC(=O)CC(C)C)C(=O)N[C@@H]([C@@H](C)O)C(=O)N[C@@H](Cc2c[nH]cn2)C(=O)N[C@@H](C(c2ccccc2)c2ccccc2)C(=O)N2CCC[C@H]2C(=O)N[C@@H](CC(C)(C)C)C(=O)N[C@@H]([C@@H](C)CC)C(=O)N1)C(=O)N[C@H](CCCCN)C(N)=O [Compd 62] (Isovaleryl-[Hag]TH[Dip]P[tBuAla]I[Hag][β3hF]K([Ahx-Palmitoyl])[dK]-NH2; staple 1-8) | 10 to 100 | 1 to 10
CCCCCCCCCCCCCCCC(=O)NCCCCCC(=O)NCCCC[C@H](NC(=O)C[C@H](Cc1ccccc1)NC(=O)[C@@H]1CCC=CCC[C@H](NC(=O)CC(C)C)C(=O)N[C@@H]([C@@H](C)O)C(=O)N[C@@H](Cc2c[nH]cn2)C(=O)N[C@@H](C(c2ccccc2)c2ccccc2)C(=O)N2CCC[C@H]2C(=O)N[C@@H](C)C(=O)N[C@@H]([C@@H](C)CC)C(=O)N1)C(=O)N[C@@H](C)C(N)=O [Compd 48] (Isovaleryl-[Hag]TH[Dip]PAI[Hag][β3hF]K([Ahx-Palmitoyl])A-NH2; staple 1-8) | 10 to 100 | 10 to 100
CCCCCCCCCCCCCCCC(=O)NCCCCCC(=O)NCCCC[C@H](NC(=O)C[C@H](Cc1ccccc1)NC(=O)[C@@H]1CCC=CC[C@H](NC(=O)CC(C)C)C(=O)N[C@@H]([C@@H](C)O)C(=O)N[C@@H](Cc2c[nH]cn2)C(=O)N[C@@H](C(c2ccccc2)c2ccccc2)C(=O)N2CCC[C@H]2C(=O)N[C@@H](C)C(=O)N[C@@H]([C@@H](C)CC)C(=O)N1)C(=O)N[C@@H](CCCNC(=N)N)C(N)=O [Compd 23] | 10 to 100 | 1 to 10
CCCCCCCCCCCCCCCC(=O)NCCCCCC(=O)NCCCC[C@H](NC(=O)C[C@H](Cc1ccccc1)NC(=O)[C@@H]1CCC=CCCC[C@@H](NC(=O)CC(C)C)C(=O)N[C@@H]([C@@H](C)O)C(=O)N[C@@H](Cc2c[nH]cn2)C(=O)N[C@@H](C(c2ccccc2)c2ccccc2)C(=O)N2CCC[C@H]2C(=O)N[C@@H](C)C(=O)N[C@@H]([C@@H](C)CC)C(=O)N1)C(=O)N[C@H](CCCCN)C(N)=O [Compd 69] | 1 to 10 | > 500
CCCCCCCCCCCCCCCC(=O)NCCCCCC(=O)NCCCC[C@H](NC(=O)[C@@H]1CCC=CCC[C@H](NC(=O)CC(C)C)C(=O)N[C@@H]([C@@H](C)O)C(=O)N[C@@H](Cc2c[nH]cn2)C(=O)N[C@@H](C(c2ccccc2)c2ccccc2)C(=O)N2CCC[C@H]2C(=O)N[C@@H](C)C(=O)N[C@@H]([C@@H](C)CC)C(=O)N1)C(N)=O [Compd 18] (Isovaleryl-[Hag]TH[Dip]PAI[Hag]K([Ahx-Palmitoyl])-NH2; staple 1-8) | 100 to 500 | 10 to 100
CCCCCCCCCCCCCCCC(=O)NCCCCCC(=O)NCCCC[C@H](NC(=O)C[C@H](Cc1ccccc1)NC(=O)[C@@H]1CCC=CCC[C@H](NC(=O)CC(C)C)C(=O)N[C@@H]([C@@H](C)O)C(=O)N[C@@H](Cc2c[nH]cn2)C(=O)N[C@@H](C(c2ccccc2)c2ccccc2)C(=O)N2CCC[C@H]2C(=O)N[C@@H](C)C(=O)N[C@@H]([C@@H](C)CC)C(=O)N1)C(N)=O [Compd 17] | 10 to 100 | 1 to 10
CCCCCCCCCCCCCCCC(=O)NCCCCCC(=O)NCCCC[C@H](NC(=O)C[C@H](Cc1ccccc1)NC(=O)[C@@H]1CCC=CCC[C@H](NC(=O)CC(C)C)C(=O)N[C@@H]([C@@H](C)O)C(=O)N[C@@H](Cc2c[nH]cn2)C(=O)N[C@@H](C(c2ccccc2)c2ccccc2)C(=O)N2CCC[C@H]2C(=O)N[C@@H](C)C(=O)N[C@@H]([C@@H](C)CC)C(=O)N1)C(=O)N[C@@H](CC(C)(C)C)C(N)=O [Compd 65] | 10 to 100 | 1 to 10
CCCCCCCCCCCCCCCC(=O)NCCCCCC(=O)NCCCC[C@H](NC(=O)C[C@H](Cc1ccccc1)NC(=O)[C@H]1CCC=CCCC[C@H](NC(=O)CC(C)C)C(=O)N[C@@H]([C@@H](C)O)C(=O)N[C@@H](Cc2c[nH]cn2)C(=O)N[C@@H](C(c2ccccc2)c2ccccc2)C(=O)N2CCC[C@H]2C(=O)N[C@@H](C)C(=O)N[C@@H]([C@@H](C)CC)C(=O)N1)C(=O)N[C@H](CCCCN)C(N)=O [Compd 78] | 10 to 100 | 100 to 500
CCCCCCCCCCCCCCCC(=O)NCCCCCC(=O)NCCCC[C@H](NC(=O)C[C@H](Cc1ccccc1)NC(=O)[C@@H]1CC=CCCC[C@H](NC(=O)CC(C)C)C(=O)N[C@@H]([C@@H](C)O)C(=O)N[C@@H](Cc2c[nH]cn2)C(=O)N[C@@H](C(c2ccccc2)c2ccccc2)C(=O)N2CCC[C@H]2C(=O)N[C@@H](C)C(=O)N[C@@H]([C@@H](C)CC)C(=O)N1)C(=O)N[C@H](CCCCN)C(N)=O [Compd 30] | 1 to 10 | 1 to 10
CCCCCCCCCCCCCCCC(=O)NCCCCCC(=O)NCCCC[C@H](NC(=O)C[C@H](Cc1ccccc1)NC(=O)[C@@H]1CCCC=CCCC[C@@H](NC(=O)CC(C)C)C(=O)N[C@@H]([C@@H](C)O)C(=O)N[C@@H](Cc2c[nH]cn2)C(=O)N[C@@H](C(c2ccccc2)c2ccccc2)C(=O)N2CCC[C@H]2C(=O)N[C@@H](C)C(=O)N[C@@H]([C@@H](C)CC)C(=O)N1)C(=O)N[C@H](CCCCN)C(N)=O [Compd 70] | 10 to 100 | 1 to 10
CCCCCCCCCCCCCCCC(=O)NCCCCCC(=O)NCCCC[C@H](NC(=O)C[C@H](Cc1ccccc1)NC(=O)[C@@H]1CCC=CCC[C@H](NC(=O)CC(C)C)C(=O)N[C@@H]([C@@H](C)O)C(=O)N[C@@H](C)C(=O)N[C@@H](C(c2ccccc2)c2ccccc2)C(=O)N2CCC[C@H]2C(=O)N[C@@H](C)C(=O)N[C@@H]([C@@H](C)CC)C(=O)N1)C(=O)N[C@H](CCCCN)C(N)=O [Compd 42] (Isovaleryl-[Hag]TA[Dip]PAI[Hag][β3hF]K([Ahx-Palmitoyl])[dK]-NH2; staple 1-8) | 100 to 500 | 100 to 500
CCCCCCCCCCCCCCCC(=O)NCCCCCC(=O)NCCCC[C@@H]1NC(=O)[C@H](C)NC(=O)[C@@H]2CCCN2C(=O)[C@H](C(c2ccccc2)c2ccccc2)NC(=O)[C@H](Cc2c[nH]cn2)NC(=O)[C@H]([C@@H](C)O)NC(=O)[C@@H](NC(=O)CC(C)C)CCC=CCC[C@@H](C(=O)N[C@H](CC(N)=O)Cc2ccccc2)NC1=O [Compd 25] (Isovaleryl-[Hag]TH[Dip]PAK([Ahx-Palmitoyl])[Hag][β3hF]-NH2; staple 1-8) | 100 to 500 | 100 to 500
CCCCCCCCCCCCCCCC(=O)NCCCCCC(=O)NCCCC[C@H](NC(=O)C[C@H](Cc1ccccc1)NC(=O)[C@H]1CCCC=CCCC[C@@H](NC(=O)CC(C)C)C(=O)N[C@@H]([C@@H](C)O)C(=O)N[C@@H](Cc2c[nH]cn2)C(=O)N[C@@H](C(c2ccccc2)c2ccccc2)C(=O)N2CCC[C@H]2C(=O)N[C@@H](C)C(=O)N[C@@H]([C@@H](C)CC)C(=O)N1)C(=O)N[C@H](CCCCN)C(N)=O [Compd 73] | 100 to 500 | > 500
CCCCCCCCCCCCCCCC(=O)NCCCCCC(=O)NCCCC[C@H](NC(=O)C[C@H](Cc1ccccc1)NC(=O)[C@H]1CCCC=CCCC[C@H](NC(=O)CC(C)C)C(=O)N[C@@H]([C@@H](C)O)C(=O)N[C@@H](Cc2c[nH]cn2)C(=O)N[C@@H](C(c2ccccc2)c2ccccc2)C(=O)N2CCC[C@H]2C(=O)N[C@@H](C)C(=O)N[C@@H]([C@@H](C)CC)C(=O)N1)C(=O)N[C@H](CCCCN)C(N)=O [Compd 77] | 1 to 10 | 1 to 10
